The values that follow come from patent US9522920B2, “Bromodomain inhibitors and uses thereof” (Constellation Pharmaceuticals, Inc., priority 2010, dated 2016).

Read-outs that look alike come from different tables or passages of the source.

Test [1] has as its system MYC mRNA. The experiment in a line: cMyc RNA quantification assay (QuantiGene) in MV4:11 cells. The conditions noted are these: read-out: MYC-MV411. In kind it is cell-based. The method, then: MV4:11 (AML) or Raji (Burkitt's lymphoma) cells were seeded in a 96-well plate and incubated in the presence of various concentrations of compounds for 4 h. Relative mRNA levels were quantitated by using QuantiGene 2.0 assay (Affymetrix) according to the manufacturer's recommendation. Signals were detected by using an Envision plate reader (Perkin-Elmer). Biological duplicates were averaged and normalized to vehicle (DMSO) control to calculate percent MYC mRNA levels.

Test [2] concerns IL-6 secretion. Kind of test: Cell-based IL-6 quantification assay (ELISA, Mesoscale) in LPS-stimulated THP-1 cells. The conditions noted are these: Table 14, THP-1 cells, LPS, 16 h, read-out: IL6. The method in brief:
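THP-1 cells stimulated with LPS at 4 μg/mL final and exposed to compounds for 16 h. Supernatant IL-6 measured by Mesoscale ELISA and normalized to CellTiter-Glo cell content. Percent inhibition derived from that ratio.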
Background: ELISA stands for enzyme-linked immunosorbent assay.

Test [3] addresses T1, BRD4(BD1) (Homo sapiens, UniProt O60885).
T1 construct: His; made in house
The experiment in a line: BRD4 AlphaLisa binding assay (Alphascreen). The conditions noted are these: Table 14; BRD4 AlphaLisa Binding Assay; read-out: Alpha screen. Summed up: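 BRD4(BD1) (30 nM) incubated 20 min at room temperature with peptide (200 nM) and compound in 40 mM HEPES pH 7.0, 40 mM NaCl, 1 mM DTT, 0.01% BSA, 0.008% Brij-35, 1.2% DMSO.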

Where [4] appears, read: Homo sapiens, MV4-11, 4 h, Table 14, MV4:11 cells.

Consider `Cc1noc2c1-c1ccc(=O)[nH]c1C(c1ccc(Cl)cc1)=NC2` [Compound 243, 6-(4-Chlorophenyl)-1-methyl-4H-isoxazolo[5,4-c]pyrido[3,2-e]azepin-8(7H)-one], for which the IC50 in test [1] (setting [4]) is over 1000 nM; in test [2] (Homo sapiens, THP-1, 16 h), over 1000 nM; in test [3], 500 to 1000 nM.
On to `CCOC(=O)NC1N=C(c2ccc(Cl)cc2)c2ccccc2-c2c(C)noc21` (single isomer, unassigned) [Compound 253, Ethyl (6-(4-chlorophenyl)-1-methyl-4H-benzo[c]isoxazolo[4,5-e]azepin-4-yl)carbamate], for which the IC50 in test [1] (setting [4]) was under 500 nM; in test [2] (Homo sapiens, THP-1, 16 h) it was under 500 nM; in test [3] it was under 500 nM.
For `Cc1noc2c1-c1ccccc1C(c1ccc(Cl)cc1)=NC2C(N)=O` (stereo not drawn) [Compound 218, 6-(4-chlorophenyl)-1-methyl-4H-benzo[c]isoxazolo[4,5-e]azepine-4-carboxamide], the IC50 in test [1] (setting [4]) is over 1000 nM; in test [2] (Homo sapiens, THP-1, 16 h), over 1000 nM; in test [3], over 1000 nM.
As for `Cc1noc2c1-c1ccc(C#N)cc1C(c1ccc(Cl)cc1)=N[C@H]2CC(N)=O` [Compound 224], the IC50 in test [1] (setting [4]) is under 500 nM; in test [2] (Homo sapiens, THP-1, 16 h), under 500 nM; in test [3], under 500 nM.
Regarding `Cc1noc2c1-c1ccc(OC(C)C)cc1C(c1ccc(Cl)cc1)=N[C@H]2CC(N)=O` [Compound 249], the IC50 is under 500 nM in test [1] (Table 14, MV4:11 cells, 4 h); under 500 nM in test [2]; under 500 nM in test [3].
With `Cc1noc2c1-c1ccccc1C(c1ccc(Cl)cc1)=N[C@H]2CC(C)(C)O` [Compound 223, 1-((4S)-6-(4-chlorophenyl)-1-methyl-4H-benzo[c]isoxazolo[4,5-e]azepin-4-yl)-2-methylpropan-2-ol], the IC50 was over 1000 nM in test [1] (setting [4]); over 1000 nM in test [2] (Homo sapiens, THP-1, 16 h); over 1000 nM in test [3].
With `Cc1noc2c1-c1ccccc1C(c1ccc(C(C)(C)O)cc1)=N[C@H]2CC(N)=O` [Compound 235], the IC50 is under 500 nM in test [1] (setting [4]); under 500 nM in test [2] (Homo sapiens, THP-1, 16 h); under 500 nM in test [3].
Take `COc1ccc2c(n1)-c1c(C)noc1CN=C2c1ccc(Cl)cc1` [Compound 219, 5-(4-Chlorophenyl)-2-methoxy-10-methyl-7H-isoxazolo[5,4-c]pyrido[2,3-e]azepine]: the IC50 was 500 to 1000 nM in test [1] (setting [4]); over 1000 nM in test [2] (Homo sapiens, THP-1, 16 h); over 1000 nM in test [3].
In the case of `Cc1noc2c1-c1ccnc(Oc3ccccc3)c1C(c1ccc(Cl)cc1)=NC2` [Compound 229, 6-(4-Chlorophenyl)-1-methyl-7-phenoxy-4H-isoxazolo[5,4-c]pyrido[4,3-e]azepine], the IC50 in test [1] (setting [4]) was over 1000 nM; in test [2] (Homo sapiens, THP-1, 16 h), over 1000 nM; in test [3], over 1000 nM.
`Cc1noc2c1-c1nc(Cl)ccc1C(c1ccc(Cl)cc1)=NC2` [Compound 227, 2-Chloro-5-(4-chlorophenyl)-10-methyl-7H-isoxazolo[5,4-c]pyrido[2,3-e]azepine]: the IC50 in test [1] (setting [4]) was over 1000 nM; in test [2] (Homo sapiens, THP-1, 16 h), over 1000 nM; in test [3] it was over 1000 nM.
For `Cc1noc2c1-c1ccccc1C(c1ccc(C3(O)CC3)cc1)=N[C@H]2CC(N)=O` [Compound 226], the IC50 in test [1] (setting [4]) was under 500 nM; in test [2] (Homo sapiens, THP-1, 16 h) it was under 500 nM; in test [3] it was under 500 nM.
Take `CCNC(=O)NC1N=C(c2ccc(Cl)cc2)c2ccccc2-c2c(C)noc21` (stereo not drawn) [Compound 245, 1-(6-(4-chlorophenyl)-1-methyl-4H-benzo[c]isoxazolo[4,5-e]azepin-4-yl)-3-ethylurea]: the IC50 in test [1] (setting [4]) was under 500 nM; in test [2] (Homo sapiens, THP-1, 16 h), under 500 nM; in test [3], under 500 nM.
Regarding `Cc1noc2c1-c1ccc(Cl)cc1C(c1ccc(F)cc1)=N[C@H]2CC(N)=O` [Compound 211], the IC50 in test [1] (setting [4]) is 500 to 1000 nM; in test [2] (Homo sapiens, THP-1, 16 h) it was under 500 nM; in test [3] it was under 500 nM.
